In data set [1] the test system is L1210 (ATCC CCL-219) mouse lymphocytic leukemia cells. Briefly: Cell growth inhibition assay. It is filed as cell-based. The note with it: for fold less active than duocarmycin SA (loss in activity): L1210, relative to duocarmycin SA.
A short description of the next data set: PAMPA assay. In kind it is in vitro ADME. As to conditions: for Papp at 5 h, 1 μM: pH 7.4. A general note: The PAMPA barrier holds no transporters, so it reflects passive diffusion.

Regarding `COCCOc1cc2cc(C(=O)N3C[C@@H](CCl)c4c3cc(O)c3[nH]c(C(=O)OC)cc43)[nH]c2c(OCCOC)c1OCCOC` [10a], the “fold less active than duocarmycin SA (loss in activity)” value in data set [1] was “approximately 5 fold”. As for `COCCOCCOCCOCCOCCOc1cc2cc(C(=O)N3C[C@@H](CCl)c4c3cc(O)c3[nH]c(C(=O)OC)cc43)[nH]c2c(OCCOCCOCCOCCOCCOC)c1OCCOCCOCCOCCOCCOC` [10e], in data set [1] (Mus musculus, L1210, read-out: –log IC50, cell growth inhibition (converted)), the IC50 is 398 nM. The Papp at 5 h, 1 μM in the data set “PAMPA assay” was 0.11 ×10⁻⁶ cm/s. For the same molecule, the “fold reduction in permeability relative to 2” value in the data set “PAMPA assay” (relative to 2) was 85 fold. As to `COCCOc1c(OC)cc2cc(C(=O)N3C[C@@H](CCl)c4c3cc(O)c3[nH]c(C(=O)OC)cc43)[nH]c2c1OC` [15a], the “fold less active than duocarmycin SA (loss in activity)” value in data set [1] is “approximately 2 fold”. This molecule yielded a Papp at 5 h, 1 μM in the data set “PAMPA assay” of 4 ×10⁻⁶ cm/s. The like results for `COCCOCCOCCOCCOCCOc1c(OC)cc2cc(C(=O)N3C[C@@H](CCl)c4c3cc(O)c3[nH]c(C(=O)OC)cc43)[nH]c2c1OC` [15e] were, in that order, 30 fold and 2.1 ×10⁻⁶ cm/s. Regarding `COC(=O)c1cc2c([nH]1)C(=O)C=C1N(C(=O)c3cc4cc(OC)c(OC)c(OC)c4[nH]3)CC3CC123` (stereo not drawn) [compound 2, duocarmycin SA, reference compound], the apparent permeability coefficient (Papp) at 5 h, 1 μM in the data set “PAMPA assay” was 9.5 ×10⁻⁶ cm/s.

The IC50 is the midpoint of a concentration-inhibition curve. In general, Papp refers to a coefficient for how fast a substance crosses the barrier. A high value points to fast passage.
